# Experimental data from patent US20080275058A1, “N-Substituted-1H-Quinoline-2,4-Diones, Preparation Method Thereof, And Pharmaceutical Composition Containing The Same” (KOREA RESEARCH INSTITUTE OF CHEMICAL TECHNOLOGY, priority 2005, published 2008).
# Where two headings read alike, the source gives them in different places.
# How the values were obtained:
# [1] = target: T1, 5-HT7 (Homo sapiens, UniProt P34969); assay: Radioligand binding, 5-HT7 ([3H]LSD); settings: Table 4; [3H]LSD 3 nM; read-out: Binding affinity, IC50 (nM) 5-HT7
# T1 construct: purchased Euroscreen/BioSignal Packard Inc
# [2] = target: T2, 5-HT1a (Homo sapiens, UniProt P08908); assay: Radioligand binding, 5-HT1a ([3H]8-OH-DPAT); settings: Table 4; [3H]8-OH-DPAT 0.5 nM; read-out: Binding affinity, IC50 (nM) 5-HT1a
# T2 construct: purchased Euroscreen/BioSignal Packard Inc
# T2 sequence (P08908 1-422): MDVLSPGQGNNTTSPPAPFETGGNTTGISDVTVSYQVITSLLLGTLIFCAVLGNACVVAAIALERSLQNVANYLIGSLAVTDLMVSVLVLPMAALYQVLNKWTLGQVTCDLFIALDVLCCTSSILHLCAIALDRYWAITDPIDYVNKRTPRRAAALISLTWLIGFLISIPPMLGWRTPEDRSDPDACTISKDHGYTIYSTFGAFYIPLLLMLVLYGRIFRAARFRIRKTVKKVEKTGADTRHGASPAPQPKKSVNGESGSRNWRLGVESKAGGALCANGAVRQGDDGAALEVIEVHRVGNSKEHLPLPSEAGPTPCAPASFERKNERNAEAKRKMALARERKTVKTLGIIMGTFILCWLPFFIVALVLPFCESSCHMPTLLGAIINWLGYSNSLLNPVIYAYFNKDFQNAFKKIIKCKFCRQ
# Procedure: Radioligand bindings were performed according to the test method provided by the supplier of receptor membrane (Euroscreen/BioSignal Packard Inc.). The detailed assay conditions and the results were shown in the following Table 3 and Table 4, respectively.
# [3] = target: T3, hD2L (Homo sapiens, UniProt P14416); assay: Radioligand binding, dopamine D2 ([3H]spiperone); settings: Table 4; [3H]spiperone 1 nM; read-out: Binding affinity, IC50 (nM) D2
# T3 construct: purchased BioSignal Packard Inc., Montreal, Canada
# Procedure: (§1) 2-2: Binding assays of Dopamine Receptor Family
# (§2) The radioligands used were [^3H] spiperone (for hD2L and hD3 receptors, 1 nM) and [^3H] YM-09151-2 (for hD4.2 receptor, 0.06 nM). Radioligand bindings were performed by the protocols provided by the supplier of receptor membranes (BioSignal Packard Inc., Montreal, Canada). Briefly, the buffer used in D2 or D3 receptor binding assay was 50 mM Tris-HCl (pH 7.4), 10 mM MgCl2, 1 mM EDTA, or 50 mM Tris-HCl (pH 7.4), 5 mM MgCl2, 5 mM EDTA, 5 mM KCl, 1.5 mM CaCl2, 120 mM NaCl, respectively. In [^3H] YM-09151-2 receptor binding assays, the buffer containing 50 mM Tris-HCl (pH 7.4), 5 mM MgCl2, 5 mM EDTA, 5 mM KCl and 1.5 mM CaCl2 was used. […] Competition binding studies were carried out with 7-8 concentrations of the test compound run in duplicate tubes, and isotherms from three assays were calculated by computerized nonlinear regression analysis (GraphPad Prism Program, San Diego, […]) to yield median inhibitory concentration (IC50) values.
# [4] = target: T4, hD3 (Homo sapiens, UniProt P35462); assay: Radioligand binding, dopamine D3 ([3H]spiperone); settings: Table 4; [3H]spiperone 1 nM; read-out: Binding affinity, IC50 (nM) D3
# T4 construct: purchased BioSignal Packard Inc., Montreal, Canada
# Procedure: as §1, §2
# [5] = target: D1 (Homo sapiens, UniProt P21728); assay: Radioligand binding, dopamine D1; settings: Table 4; read-out: Binding affinity, IC50 (nM) D1
# [6] = target: T5, hD4.2 receptor (Homo sapiens, UniProt P21917, DEL265-296); assay: Radioligand binding, dopamine D4 ([3H]YM-09151-2); settings: Table 4; [3H]YM-09151-2 0.06 nM; read-out: Binding affinity, IC50 (nM) D4
# T5 construct: purchased BioSignal Packard Inc., Montreal, Canada
# T5 sequence (P21917 with tags, fused parts or gaps DEL265-296): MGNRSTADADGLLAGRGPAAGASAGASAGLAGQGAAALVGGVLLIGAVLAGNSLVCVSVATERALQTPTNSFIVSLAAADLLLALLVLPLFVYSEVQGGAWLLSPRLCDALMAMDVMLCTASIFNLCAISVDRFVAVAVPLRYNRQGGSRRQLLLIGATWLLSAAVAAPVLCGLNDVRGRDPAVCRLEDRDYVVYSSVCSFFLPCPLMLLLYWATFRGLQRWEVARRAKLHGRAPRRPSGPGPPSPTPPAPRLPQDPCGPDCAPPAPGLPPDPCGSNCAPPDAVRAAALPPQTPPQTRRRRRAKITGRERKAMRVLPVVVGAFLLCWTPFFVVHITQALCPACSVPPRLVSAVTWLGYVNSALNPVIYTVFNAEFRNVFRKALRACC
# Procedure: as §1, §2
# [7] = target: T6, Human serotonin 5-HT6 receptor (Homo sapiens, UniProt P50406); assay: [3H]LSD binding assay on cloned 5-HT6 receptor membranes; settings: for binding affinity at 5-HT6 receptor labeled by [3H]LSD, in words: comment on Table 2
# T6 construct: made in house; host or cells: insect Sf21 cells (baculovirus vector BacPAK8)
# [8] = target: T7, 5-HT2c (Homo sapiens, UniProt P28335); assay: Radioligand binding, 5-HT2c ([3H]Mesulergine); settings: Table 4; [3H]Mesulergine 1 nM; read-out: Binding affinity, IC50 (nM) 5-HT2c
# T7 construct: purchased Euroscreen/BioSignal Packard Inc
# T7 sequence (P28335 33-458): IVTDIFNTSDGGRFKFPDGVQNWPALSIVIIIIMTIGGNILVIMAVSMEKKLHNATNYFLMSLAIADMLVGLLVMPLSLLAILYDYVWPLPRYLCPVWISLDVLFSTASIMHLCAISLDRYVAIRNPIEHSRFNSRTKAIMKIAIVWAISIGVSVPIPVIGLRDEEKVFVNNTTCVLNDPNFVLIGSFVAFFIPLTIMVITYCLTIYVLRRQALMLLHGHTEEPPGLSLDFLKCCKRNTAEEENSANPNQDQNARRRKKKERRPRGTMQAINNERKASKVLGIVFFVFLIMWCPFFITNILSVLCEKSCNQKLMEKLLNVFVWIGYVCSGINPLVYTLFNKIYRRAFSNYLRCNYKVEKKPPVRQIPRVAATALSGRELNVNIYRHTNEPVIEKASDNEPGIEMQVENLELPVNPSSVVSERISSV
# [9] = target: T8, 5-HT2a (Homo sapiens, UniProt P28223); assay: Radioligand binding, 5-HT2a ([3H]Ketanserin); settings: Table 4; [3H]Ketanserin 1 nM; read-out: Binding affinity, IC50 (nM) 5-HT2a
# T8 construct: purchased Euroscreen/BioSignal Packard Inc
# [10] = Table 2, 1.87 nM [3H]LSD, 37 C, 60 min, read-out: IC50 (nM), binding affinity to the 5-HT6 receptor
# [11] = Table 4, read-out: Binding affinity, IC50 (nM) 5-HT6
# T8 sequence (P28223 whole entry): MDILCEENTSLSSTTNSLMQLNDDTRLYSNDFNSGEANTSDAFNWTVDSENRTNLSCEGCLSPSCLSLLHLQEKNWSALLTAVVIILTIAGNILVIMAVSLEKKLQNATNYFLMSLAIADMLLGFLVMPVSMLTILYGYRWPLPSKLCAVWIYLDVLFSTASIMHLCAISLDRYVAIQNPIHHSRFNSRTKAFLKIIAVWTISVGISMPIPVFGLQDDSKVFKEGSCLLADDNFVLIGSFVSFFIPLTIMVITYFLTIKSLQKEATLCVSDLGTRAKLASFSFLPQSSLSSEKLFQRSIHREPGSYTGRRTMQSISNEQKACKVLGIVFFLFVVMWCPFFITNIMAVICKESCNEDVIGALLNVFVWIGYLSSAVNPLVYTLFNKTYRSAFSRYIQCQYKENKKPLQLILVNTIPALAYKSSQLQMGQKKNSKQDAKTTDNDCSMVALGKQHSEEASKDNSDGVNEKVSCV
# T1 sequence (P34969 whole entry): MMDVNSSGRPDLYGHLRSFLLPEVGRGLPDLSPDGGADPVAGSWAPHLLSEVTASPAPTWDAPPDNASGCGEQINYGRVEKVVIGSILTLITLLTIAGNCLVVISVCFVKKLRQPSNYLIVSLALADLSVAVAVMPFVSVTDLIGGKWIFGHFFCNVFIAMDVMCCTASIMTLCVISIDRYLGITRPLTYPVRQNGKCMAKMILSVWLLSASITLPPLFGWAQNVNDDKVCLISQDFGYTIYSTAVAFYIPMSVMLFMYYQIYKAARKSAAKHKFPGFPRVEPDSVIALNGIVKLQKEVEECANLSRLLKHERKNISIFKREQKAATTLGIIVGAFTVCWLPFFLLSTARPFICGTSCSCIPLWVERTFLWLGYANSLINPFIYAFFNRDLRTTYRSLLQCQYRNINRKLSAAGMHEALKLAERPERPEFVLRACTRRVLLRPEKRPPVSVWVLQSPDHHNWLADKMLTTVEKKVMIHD
# T4 sequence (P35462 whole entry): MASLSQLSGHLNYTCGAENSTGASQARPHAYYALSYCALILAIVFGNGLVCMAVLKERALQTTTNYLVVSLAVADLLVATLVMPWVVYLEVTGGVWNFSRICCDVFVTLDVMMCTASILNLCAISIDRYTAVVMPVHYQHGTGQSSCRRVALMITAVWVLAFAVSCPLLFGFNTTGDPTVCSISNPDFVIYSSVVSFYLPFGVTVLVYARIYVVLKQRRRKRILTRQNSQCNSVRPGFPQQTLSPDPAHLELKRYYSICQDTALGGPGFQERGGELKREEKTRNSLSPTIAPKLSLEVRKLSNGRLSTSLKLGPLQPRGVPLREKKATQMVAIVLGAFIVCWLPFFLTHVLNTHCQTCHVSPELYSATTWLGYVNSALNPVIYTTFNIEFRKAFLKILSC
# Sequence of D1 (P21728 whole entry): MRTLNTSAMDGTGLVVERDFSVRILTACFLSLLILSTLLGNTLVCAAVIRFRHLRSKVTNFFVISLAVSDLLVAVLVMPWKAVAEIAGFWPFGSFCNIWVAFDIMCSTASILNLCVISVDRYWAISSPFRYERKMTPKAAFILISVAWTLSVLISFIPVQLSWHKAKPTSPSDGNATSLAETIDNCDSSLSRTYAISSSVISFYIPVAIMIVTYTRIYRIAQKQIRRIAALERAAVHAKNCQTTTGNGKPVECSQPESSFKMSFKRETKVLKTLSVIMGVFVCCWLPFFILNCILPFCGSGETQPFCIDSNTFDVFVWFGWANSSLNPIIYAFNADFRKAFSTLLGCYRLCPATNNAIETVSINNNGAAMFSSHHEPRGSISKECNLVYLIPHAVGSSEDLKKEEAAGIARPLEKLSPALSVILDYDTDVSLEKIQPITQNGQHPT
# T6 sequence (P50406 whole entry): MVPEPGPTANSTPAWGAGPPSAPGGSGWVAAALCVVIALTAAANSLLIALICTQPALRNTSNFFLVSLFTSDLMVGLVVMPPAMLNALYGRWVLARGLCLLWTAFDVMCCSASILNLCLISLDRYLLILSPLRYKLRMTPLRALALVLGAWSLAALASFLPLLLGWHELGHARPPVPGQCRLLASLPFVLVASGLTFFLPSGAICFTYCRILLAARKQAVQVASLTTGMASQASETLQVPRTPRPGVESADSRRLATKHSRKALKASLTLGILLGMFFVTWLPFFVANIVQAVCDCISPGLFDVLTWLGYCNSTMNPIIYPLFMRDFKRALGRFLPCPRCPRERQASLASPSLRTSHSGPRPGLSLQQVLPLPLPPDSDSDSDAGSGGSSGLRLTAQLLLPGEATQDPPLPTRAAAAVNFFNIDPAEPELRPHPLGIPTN
# T3 sequence (P14416 whole entry): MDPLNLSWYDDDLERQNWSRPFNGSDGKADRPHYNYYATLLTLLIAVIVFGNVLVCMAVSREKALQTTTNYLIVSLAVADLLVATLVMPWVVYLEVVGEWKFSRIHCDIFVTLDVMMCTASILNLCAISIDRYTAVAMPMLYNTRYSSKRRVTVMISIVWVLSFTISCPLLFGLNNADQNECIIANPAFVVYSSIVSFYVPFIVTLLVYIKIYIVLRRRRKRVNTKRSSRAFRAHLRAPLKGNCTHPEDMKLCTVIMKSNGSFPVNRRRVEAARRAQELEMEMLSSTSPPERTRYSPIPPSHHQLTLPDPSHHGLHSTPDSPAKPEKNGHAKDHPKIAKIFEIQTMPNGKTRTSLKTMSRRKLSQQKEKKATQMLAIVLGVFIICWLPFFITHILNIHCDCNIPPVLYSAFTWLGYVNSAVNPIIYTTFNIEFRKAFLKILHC
smiles,measurement,setting,value
"CC1(c2ccc(O)cc2)C(=O)c2c(N3CCNCC3)cc(Cl)cc2N(Cc2ccc(-c3ccccc3)cc2)C1=O (stereo not shown) [Example 42, 1-Biphenyl-4-ylmethyl-7-chloro-3-(4-hydroxy-phenyl)-3-methyl-5-piperazin-1-yl-1H-quinoline-2,4-dione]",IC50,[1],6730 nM
same,IC50,[2],6640 nM
same,IC50,[3],6850 nM
same,IC50,[4],9210 nM
same,IC50,[5],6120 nM
same,IC50,[6],9410 nM
same,IC50,[7]; [10],164 nM
same,IC50,[7]; [11],16.1 nM
same,melting point,,240 to 241 °C
same,IC50,[8],7600 nM
same,IC50,[9],8190 nM
"COc1cccc(C2(C)C(=O)c3c(N4CCNCC4)cc(Cl)cc3N(Cc3ccccc3)C2=O)c1 (stereo not shown) [Example 50, 1-Benzyl-7-chloro-3-(3-methoxy-phenyl)-3-methyl-5-piperazin-1-yl-1H-quinoline-2,4-dione]",IC50,[1],7640 nM
same,IC50,[2],> 1000 nM
same,IC50,[3],7190 nM
same,IC50,[4],9760 nM
same,IC50,[5],7740 nM
same,IC50,[6],9040 nM
same,IC50,[7]; [10],1.8 nM
same,IC50,[7]; [11],18.4 nM
same,"binding affinity at 5-HT6 receptor labeled by [3H]LSD, in words",[7],significant affinities
same,melting point,,110 to 112 °C
same,IC50,[8],7470 nM
same,IC50,[9],9150 nM
"COc1ccc(C2(C)C(=O)c3c(N4CCNCC4)cc(Cl)cc3N(Cc3cccc([N+](=O)[O-])c3)C2=O)cc1 (stereo not shown) [Example 23, 7-Chloro-3-(4-methoxy-phenyl)-3-methyl-1-(3-nitro-benzyl)-5-piperazin-1-yl-1H quinoline-2,4-dione]",IC50,[1],8450 nM
same,IC50,[2],9010 nM
same,IC50,[3],6930 nM
same,IC50,[4],9650 nM
same,IC50,[5],7640 nM
same,IC50,[6],9090 nM
same,IC50,[7]; [10],2.7 nM
same,IC50,[7]; [11],16.7 nM
same,melting point,,153 to 154 °C
same,IC50,[8],8400 nM
same,IC50,[9],6480 nM
"CC1(c2ccc(O)cc2)C(=O)c2c(N3CCNCC3)cc(Cl)cc2N(CC2CCCCC2)C1=O (stereo not shown) [Example 49, 7-Chloro-1-cyclohexylmethyl-3-(4-hydroxy-phenyl)-3-methyl-5-piperazin-1-yl-1H-quinoline-2,4-dione]",IC50,[1],9510 nM
same,IC50,[2],6300 nM
same,IC50,[3],> 10000 nM
same,IC50,[4],8680 nM
same,IC50,[5],8140 nM
same,IC50,[6],8780 nM
same,IC50,[7]; [10],11.7 nM
same,IC50,[7]; [11],17.5 nM
same,melting point,,175 to 176 °C
same,IC50,[8],7530 nM
same,IC50,[9],5810 nM
"COc1ccc(C2(C)C(=O)c3c(N4CCNCC4)cc(Cl)cc3N(Cc3cccnc3)C2=O)cc1 (stereo not shown) [Example 37, 7-Chloro-3-(4-methoxy-phenyl)-3-methyl-5-piperazin-1-yl-1-pyridin-3-ylmethyl-1H-quinoline-2,4-dione]",IC50,[1],5990 nM
same,IC50,[2],9060 nM
same,IC50,[3],8050 nM
same,IC50,[4],> 10000 nM
same,IC50,[5],7680 nM
same,IC50,[6],9380 nM
same,IC50,[7]; [10],21.4 nM
same,IC50,[7]; [11],19.8 nM
same,melting point,,160 to 162 °C
same,IC50,[8],8050 nM
same,IC50,[9],6020 nM
"CC1(c2ccc([N+](=O)[O-])cc2)C(=O)c2c(N3CCNCC3)cc(Cl)cc2N(Cc2ccccc2)C1=O (stereo not shown) [Example 15, 1-Benzyl-7-chloro-3-methyl-3-(4-nitro-phenyl)-5-piperazin-1-yl-1H-quinoline-2,4-dione]",IC50,[1],9510 nM
same,IC50,[2],6350 nM
same,IC50,[3],6660 nM
same,IC50,[4],9740 nM
same,IC50,[5],5810 nM
same,IC50,[6],9460 nM
same,IC50,[7]; [10],12.1 nM
same,IC50,[7]; [11],15.2 nM
same,melting point,,145 to 146 °C
same,IC50,[8],9950 nM
same,IC50,[9],8120 nM
"CC1(c2ccc(O)cc2)C(=O)c2c(N3CCNCC3)cc(Cl)cc2N(Cc2ccc(O)cc2)C1=O (stereo not shown) [Example 32, 7-Chloro-1-(4-hydroxy-benzyl)-3-(4-hydroxy-phenyl)-3-methyl-5-piperazin-1-yl-1H-quinoline-2,4-dione]",IC50,[1],8310 nM
same,IC50,[2],6580 nM
same,IC50,[3],6960 nM
same,IC50,[4],9110 nM
same,IC50,[5],9010 nM
same,IC50,[6],9450 nM
same,IC50,[7]; [10],1.7 nM
same,IC50,[7]; [11],15.2 nM
same,"binding affinity at 5-HT6 receptor labeled by [3H]LSD, in words",[7],significant affinities
same,melting point,,241 to 242 °C
same,IC50,[8],7890 nM
same,IC50,[9],7450 nM
